{"source": "paper PMC7156458", "about": "“Synthetic biology based construction of biological activity-related library of fungal decalin-containing diterpenoid pyrones” (Nature Communications, 2020)", "key": {"[1]": {"test_system": "human immunodeficiency virus-1 (HIV-1)", "assay": "anti-HIV MAGI assay", "type": "cell-based", "settings": "anti-HIV", "excerpt": "We examined the inhibitory activities of DDPs against various species of bacteria (both gram-negative and gram-positive bacteria), fungi and viruses. […] In contrast, preliminary screening of the DDPs for anti-viral agents with hepatitis B virus (HBV), measles virus (MV), Epstein-Barr virus (EBV), herpes simplex virus (HSV) and human immunodeficiency virus-1 (HIV-1) indicated their selective inhibition of HIV."}, "[2]": {"assay": "cytotoxicity in Drosophila DL1 cells", "type": "cell-based", "settings": "Drosophila, DL1 cells (embryonic macrophage-derived), DL1 cells", "protocol": "(§1) We screened the DDPs on the Drosophila assay system for cytotoxicity, inhibitory activity of innate immune signalling and insecticidal activity. The cytotoxicity of the DDPs was evaluated using two cell lines, embryonic macrophage-derived DL1 cells[58]–[60] and larval blood cell-derived l(2)mbn cells, and their IC50 values are listed in Supplementary Table 23."}, "DL1 cells": {"test_system": "DL1 cells", "assay": "cytotoxicity in Drosophila DL1 cells", "type": "cell-based", "settings": "DL1 cells; for IC50: Drosophila melanogaster, cytotoxicity", "protocol": "as §1"}, "NCI-H226": {"test_system": "NCI-H226", "assay": "cells", "parameters": "species or system JFCR39 human cancer cell lines; JFCR39 panel growth inhibition, sulforhodamine B total protein after 48 h", "settings": "Homo sapiens, NCI-H226, 48 h", "procedure,_shortened": "(§2)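 Human cancer lines of the JFCR39 panel grown in RPMI-1640 with 5% FBS at 37°C, 5% CO2. Total cellular protein measured by sulforhodamine B after 48 hours of drug exposure; GI50 from duplicate assays.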"}, "NCI-H460": {"test_system": "NCI-H460", "assay": "cells", "parameters": "species or system JFCR39 human cancer cell lines; JFCR39 panel growth inhibition, sulforhodamine B total protein after 48 h", "settings": "Homo sapiens, NCI-H460, 48 h", "procedure,_shortened": "as §2"}, "BSY-1": {"test_system": "BSY-1", "assay": "cells", "parameters": "species or system JFCR39 human cancer cell lines; JFCR39 panel growth inhibition, sulforhodamine B total protein after 48 h", "settings": "BSY-1, 48 h", "procedure,_shortened": "as §2"}, "MCF-7": {"test_system": "MCF-7", "assay": "cells", "parameters": "species or system JFCR39 human cancer cell lines; JFCR39 panel growth inhibition, sulforhodamine B total protein after 48 h", "settings": "Homo sapiens, MCF7, 48 h", "procedure,_shortened": "as §2"}, "ACHN": {"test_system": "ACHN", "assay": "cells", "parameters": "species or system JFCR39 human cancer cell lines; JFCR39 panel growth inhibition, sulforhodamine B total protein after 48 h", "settings": "Homo sapiens, ACHN, 48 h", "procedure,_shortened": "as §2"}, "A549": {"test_system": "A549", "assay": "cells", "parameters": "species or system JFCR39 human cancer cell lines; JFCR39 panel growth inhibition, sulforhodamine B total protein after 48 h", "settings": "Homo sapiens, A549, 48 h", "procedure,_shortened": "as §2"}, "KM-12": {"test_system": "KM-12", "assay": "cells", "parameters": "species or system JFCR39 human cancer cell lines; JFCR39 panel growth inhibition, sulforhodamine B total protein after 48 h", "settings": "Homo sapiens, KM12, 48 h", "procedure,_shortened": "as §2"}, "MKN-B": {"test_system": "MKN-B", "assay": "cells", "parameters": "species or system JFCR39 human cancer cell lines; JFCR39 panel growth inhibition, sulforhodamine B total protein after 48 h", "settings": "48 h", "procedure,_shortened": "as §2"}, "LOX-IMVI": {"test_system": "LOX-IMVI", "assay": "cells", "parameters": "species or system JFCR39 human cancer cell lines; JFCR39 panel growth inhibition, sulforhodamine B total protein after 48 h", "settings": "Homo sapiens, LOX IMVI, 48 h", "procedure,_shortened": "as §2"}, "l(2)mbn cells": {"test_system": "l(2)mbn cells", "assay": "cytotoxicity in Drosophila l(2)mbn cells", "type": "cell-based", "settings": "for Luminescence Raw1: replicate 1; for Luminescence Raw2: replicate 2; for IC50: Drosophila melanogaster, cytotoxicity", "protocol": "as §1"}, "[3]": {"assay": "cytotoxicity in Drosophila l(2)mbn cells", "type": "cell-based", "settings": "Drosophila, l(2)mbn cells (larval blood cell-derived)", "protocol": "as §1"}, "[4]": {"settings": "replicate 1, relative to DMSO 1%, read-out: % viability, viability 1"}, "[5]": {"settings": "replicate 2, relative to DMSO 1%, read-out: % viability, viability 2"}, "[6]": {"settings": "average of two replicates, read-out: IC50 Average"}, "[7]": {"settings": "replicate 1, read-out: IC50 (1)"}, "[8]": {"settings": "replicate 2, read-out: IC50 (2)"}}, "note": "Values joined by “and” are separate entries in the source; they are usually repeats but may differ in a detail not shown here. Identical values can stand only once. Like-named read-outs stand apart in the source and are kept apart here."}
{"smiles": "C=C1CCC2C(C)(CCC=C(C)C)C(O)CCC2(C)C1Cc1c(OC)oc(CO)c(C(=O)OC)c1=O", "note": "(centres unmarked) [Compound 13]", "values": [{"measurement": "EC50", "setting": "[1]; Human immunodeficiency virus 1, MAGI, average of numeric determinations, read-out: Avg. EC50", "result": 0.0688, "unit": "µM"}, {"measurement": "EC50", "setting": "[1]; Human immunodeficiency virus 1, MAGI, single determinations, read-out: Efficacy (EC50)", "result": 0.0697, "unit": "µM"}, {"measurement": "EC50", "setting": "[1]; single determinations, read-out: Efficacy (EC50)", "result": "0.0611 µM and 0.0814 µM and 0.0631 µM"}, {"measurement": "viability at 0.04 µM", "setting": "[2]; [4]", "result": 100, "unit": "%"}, {"measurement": "viability at 0.04 µM", "setting": "[2]; [5]", "result": 102, "unit": "%"}, {"measurement": "viability at 0.2 µM", "setting": "[2]; [4]", "result": 78.9, "unit": "%"}, {"measurement": "viability at 0.2 µM", "setting": "[2]; [5]", "result": 70.5, "unit": "%"}, {"measurement": "viability at 1 µM", "setting": "[2]; [4]", "result": 9.59, "unit": "%"}, {"measurement": "viability at 1 µM", "setting": "[2]; [5]", "result": 9.84, "unit": "%"}, {"measurement": "viability at 4 µM", "setting": "[2]; [4]", "result": 6.11, "unit": "%"}, {"measurement": "viability at 4 µM", "setting": "[2]; [5]", "result": 5.06, "unit": "%"}, {"measurement": "viability at 10 µM", "setting": "[2]; [4]", "result": 7.19, "unit": "%"}, {"measurement": "viability at 10 µM", "setting": "[2]; [5]", "result": 6.02, "unit": "%"}, {"measurement": "viability at 20 µM", "setting": "[2]; [4]", "result": 4.62, "unit": "%"}, {"measurement": "viability at 20 µM", "setting": "[2]; [5]", "result": 3.94, "unit": "%"}, {"measurement": "Luminescence Raw1", "setting": "DL1 cells; 0.04 µM, replicate 1", "result": 2061595}, {"measurement": "Luminescence Raw2", "setting": "DL1 cells; 0.04 µM, replicate 2", "result": 2096579}, {"measurement": "Luminescence Raw1", "setting": "DL1 cells; 0.2 µM, replicate 1", "result": 1624487}, {"measurement": "Luminescence Raw2", "setting": "DL1 cells; 0.2 µM, replicate 2", "result": 1452825}, {"measurement": "Luminescence Raw1", "setting": "DL1 cells; 1 µM, replicate 1", "result": 197587}, {"measurement": "Luminescence Raw2", "setting": "DL1 cells; 1 µM, replicate 2", "result": 202634}, {"measurement": "Luminescence Raw1", "setting": "DL1 cells; 4 µM, replicate 1", "result": 125835}, {"measurement": "Luminescence Raw2", "setting": "DL1 cells; 4 µM, replicate 2", "result": 104201}, {"measurement": "Luminescence Raw1", "setting": "DL1 cells; 10 µM, replicate 1", "result": 148189}, {"measurement": "Luminescence Raw2", "setting": "DL1 cells; 10 µM, replicate 2", "result": 124032}, {"measurement": "Luminescence Raw1", "setting": "DL1 cells; 20 µM, replicate 1", "result": 95187}, {"measurement": "Luminescence Raw2", "setting": "DL1 cells; 20 µM, replicate 2", "result": 81125}, {"measurement": "IC50", "setting": "DL1 cells; [6]", "result": 0.292, "unit": "µM"}, {"measurement": "IC50", "setting": "DL1 cells; average±SEM, read-out: IC50", "result": "0.29 ± 0.02", "unit": "µM"}, {"measurement": "IC50", "setting": "DL1 cells; [7]", "result": 0.311, "unit": "µM"}, {"measurement": "IC50", "setting": "DL1 cells; [8]", "result": 0.273, "unit": "µM"}, {"measurement": "GI50", "setting": "NCI-H226", "result": 16.9, "unit": "µM"}, {"measurement": "GI50", "setting": "NCI-H460", "result": 11.2, "unit": "µM"}, {"measurement": "GI50", "setting": "BSY-1", "result": 13.9, "unit": "µM"}, {"measurement": "GI50", "setting": "MCF-7", "result": 13.8, "unit": "µM"}, {"measurement": "GI50", "setting": "ACHN", "result": 12, "unit": "µM"}, {"measurement": "GI50", "setting": "A549", "result": 19.8, "unit": "µM"}, {"measurement": "GI50", "setting": "KM-12", "result": 19.1, "unit": "µM"}, {"measurement": "GI50", "setting": "MKN-B", "result": 15.7, "unit": "µM"}, {"measurement": "GI50", "setting": "LOX-IMVI", "result": 13.7, "unit": "µM"}, {"measurement": "Luminescence Raw1", "setting": "l(2)mbn cells; 0.04 µM", "result": 3699578}, {"measurement": "Luminescence Raw2", "setting": "l(2)mbn cells; 0.04 µM", "result": 3900517}, {"measurement": "Luminescence Raw1", "setting": "l(2)mbn cells; 0.2 µM", "result": 4107234}, {"measurement": "Luminescence Raw2", "setting": "l(2)mbn cells; 0.2 µM", "result": 3571875}, {"measurement": "Luminescence Raw1", "setting": "l(2)mbn cells; 1 µM", "result": 4025701}, {"measurement": "Luminescence Raw2", "setting": "l(2)mbn cells; 1 µM", "result": 3137197}, {"measurement": "Luminescence Raw1", "setting": "l(2)mbn cells; 4 µM", "result": 2332844}, {"measurement": "Luminescence Raw2", "setting": "l(2)mbn cells; 4 µM", "result": 2029883}, {"measurement": "Luminescence Raw1", "setting": "l(2)mbn cells; 10 µM", "result": 535109}, {"measurement": "Luminescence Raw2", "setting": "l(2)mbn cells; 10 µM", "result": 623453}, {"measurement": "Luminescence Raw1", "setting": "l(2)mbn cells; 20 µM", "result": 280543}, {"measurement": "Luminescence Raw2", "setting": "l(2)mbn cells; 20 µM", "result": 241241}, {"measurement": "IC50", "setting": "l(2)mbn cells; [6]", "result": 8.46, "unit": "µM"}, {"measurement": "IC50", "setting": "l(2)mbn cells; average±SEM, read-out: IC50", "result": "8.46 ± 0.98", "unit": "µM"}, {"measurement": "IC50", "setting": "l(2)mbn cells; [7]", "result": 9.44, "unit": "µM"}, {"measurement": "IC50", "setting": "l(2)mbn cells; [8]", "result": 7.47, "unit": "µM"}, {"measurement": "viability at 0.04 µM", "setting": "[3]; [4]", "result": 144, "unit": "%"}, {"measurement": "viability at 0.04 µM", "setting": "[3]; [5]", "result": 152, "unit": "%"}, {"measurement": "viability at 0.2 µM", "setting": "[3]; [4]", "result": 160, "unit": "%"}, {"measurement": "viability at 0.2 µM", "setting": "[3]; [5]", "result": 139, "unit": "%"}, {"measurement": "viability at 1 µM", "setting": "[3]; [4]", "result": 157, "unit": "%"}, {"measurement": "viability at 1 µM", "setting": "[3]; [5]", "result": 122, "unit": "%"}, {"measurement": "viability at 4 µM", "setting": "[3]; [4]", "result": 90.9, "unit": "%"}, {"measurement": "viability at 4 µM", "setting": "[3]; [5]", "result": 79.1, "unit": "%"}, {"measurement": "viability at 10 µM", "setting": "[3]; [4]", "result": 20.9, "unit": "%"}, {"measurement": "viability at 10 µM", "setting": "[3]; [5]", "result": 24.3, "unit": "%"}, {"measurement": "viability at 20 µM", "setting": "[3]; [4]", "result": 10.9, "unit": "%"}, {"measurement": "viability at 20 µM", "setting": "[3]; [5]", "result": 9.4, "unit": "%"}]}
